Experimental data taken from patent US7524679B2, “Methods for culturing human lung mast cells and uses thereof” (Philadelphia, Health and Education Corporation, priority 2001, dated 2009).
Ends that are not written are not given here.

What was measured:
human lung mast cells [1] = assay: Histamine release assay in cultured human lung mast cells; format: cell-based; conditions: agent alone on cultured human lung mast cells
Method: Release of histamine in response to various stimuli was also examined.
Mast cells (10-50×10^3/tube) in PAGCM were preincubated at 37° C. then challenged with buffer or anti-FcεRI in doubling dilutions. In experiments examining the effects of beta-agonist and purinergic agonists, agents were added to cells at 37° C. for 15 minutes prior to FcεRI-mediated challenge. Twenty minutes following challenge, cells were rapidly pelleted and supernatants removed for histamine analysis. Histamine release was expressed as the net histamine released divided by the total histamine content ×100%. The total cellular histamine content was determined following cell lysis with 2% perchloric acid. […] Histamine measurements were performed using the automated spectrofluorometric method of Technicon (Tarrytown, N.Y.). […] All assays were run in duplicates.

[2] = test system: cord-blood precursor-derived mast cells; conditions: cited from earlier work
[3] = test system: freshly isolated human lung mast cells; conditions: cited from earlier work
[4] = test system: human lung mast cell cultures; assay: Beta-receptor responsiveness: inhibition of histamine release; format: cell-based; conditions: cultured human lung mast cells, agents added 15 minutes prior to FcεRI-mediated challenge
Method: Beta-receptor responsiveness of human lung mast cell cultures of the present invention were also examined using the prototype agonist, isoproterenol, as well as with the long-acting beta agonist, salmeterol.
Mast cells (10-50×10^3/tube) in PAGCM were preincubated at 37° C. then challenged with buffer or anti-FcεRI in doubling dilutions. In experiments examining the effects of beta-agonist and purinergic agonists, agents were added to cells at 37° C. for 15 minutes prior to FcεRI-mediated challenge. Twenty minutes following challenge, cells were rapidly pelleted and supernatants removed for histamine analysis. Histamine release was expressed as the net histamine released divided by the total histamine content ×100%. The total cellular histamine content was determined following cell lysis with 2% perchloric acid. Spontaneous histamine release was always <2% of cellular histamine and generally <1%. Histamine measurements were performed using the automated spectrofluorometric method of Technicon (Tarrytown, N.Y.). Variations between replicates were consistently <5%. All assays were run in duplicates.

human lung mast cells [5] = assay: Proliferation assay using 3H-thymidine uptake; format: cell-based; conditions: for effect on proliferation when added to medium containing stem cell factor and interleukin-4: added on top of stem cell factor and interleukin-4
Method: Uptake of ^3H-thymidine was also monitored as a measure of survival and proliferation of human lung mast cell cultures of the present invention in the presence of different cytokine growth factors. In these experiments, ^3H-thymidine was added to human lung mast cell aliquots from three individuals at 5 through 7 weeks of culture. […] In the absence of stem cell factor, cells died within 3-5 days. Medium with stem cell factor alone produced a 60% increase in uptake. Medium to which stem cell factor and interleukin-4 were added produced a greater than 4-fold increase in proliferation versus stem cell factor alone.
At days 35-49, when cultures contained >95-99% mast cells, 2×10^4 mast cells in 50 μl culture medium were placed in triplicate in 96 well flat-bottomed plates and ^3H-thymidine (0.5 μCi/50 μl/well) added. After four days, cells were harvested on a glass fiber filter, washed ×3, and radioactive uptake was evaluated by a beta counter. Since the cultures contained virtually homogeneous populations, the counts reflected mast cell proliferation and not that of cellular contaminants. The results were expressed as the percent increase in radioactivity over mast cell cultured in medium alone.

[6] = test system: mast cells from CD34 positive precursor stem cells; conditions: added to precursor-derived mast cell culture system; cited from earlier work

Molecule: CNc1ccc2oc(C[C@H]3O[C@@]4(CC[C@H]3C)O[C@H]([C@H](C)C(=O)c3ccc[nH]3)[C@H](C)C[C@H]4C)nc2c1C(=O)O [A23187]
- histamine release, in words (human lung mast cells [1]): in similar fashion to freshly isolated human lung mast cells

Molecule: Nc1ncnc2c1ncn2[C@@H]1O[C@H](COP(=O)(O)OP(=O)(O)OP(=O)(O)O)[C@@H](O)[C@H]1O [ATP]
- histamine release, in words (human lung mast cells [1]): neither ATP nor UTP alone triggered appreciable histamine release

Molecule: Nc1ncnc2c1ncn2[C@@H]1O[C@H](CO)[C@@H](O)[C@H]1O [Adenosine, adenosine]
- effect on IgE-mediated histamine release [2]: inhibits IgE-mediated histamine release
- effect on anti-IgE-induced histamine release [3]: enhancement of anti-IgE-induced release

Molecule: O=c1ccn([C@@H]2O[C@H](COP(=O)(O)OP(=O)(O)OP(=O)(O)O)[C@@H](O)[C@H]2O)c(=O)[nH]1 [UTP, uridine 5′ triphosphate]
- histamine release, in words (human lung mast cells [1]): neither ATP nor UTP alone triggered appreciable histamine release

Molecule: CC(C)NCC(O)c1ccc(O)c(O)c1 (stereo not shown) [isoproterenol]
- IC50 [4]: 0.09 nM

Molecule: OCc1cc(C(O)CNCCCCCCOCCCCc2ccccc2)ccc1O (stereo not shown) [salmeterol]
- IC50 [4]: 0.1 nM

Molecule: interferon-y: cytokine added to culture medium containing stem cell factor and interleukin-4
- effect on proliferation when added to medium containing stem cell factor and interleukin-4 (human lung mast cells [5]): marked reduction in proliferation

Molecule: interleukin-9: cytokine growth factor
- effect on proliferation when added to medium containing stem cell factor and interleukin-4 (human lung mast cells [5]): even greater enhancement in proliferation

Molecule: stem cell factor: cytokine growth factor added to the culture medium
- increase in 3H-thymidine uptake (human lung mast cells [5]; medium with stem cell factor alone, over medium alone): 60%

Molecule: substance P (RPKPQQFFGLM; ends and bridges not checked; UniProt P20366 58-68, looked up)
- histamine release, in words (human lung mast cells [1]): failed to provoke histamine release

B1: interleukin-4: cytokine growth factor; the cytokine that most defines allergic immunity (protein, UniProt P05112 25-153, looked up)
Interleukin-4: HKCDITLQEIIKTLNSLTEQKTLCTELTVTDIFAASKNTTEKETFCRAATVLRQFYSHHEKDTRCLGATAQQFHRHKQLIRFLKRLDRNLWGLAGLNSCPVKEANQSTLENFLERLKTIMREKYSKCSS
- proliferation (3H-thymidine uptake) (human lung mast cells [5]; interleukin-4 added in the absence of stem cell factor, 5 through 7 weeks of culture): no proliferation in excess of that seen in culture medium alone
- programmed cell death (apoptosis) [6]: induces programmed cell death (apoptosis)
